Test results taken from US9595012B2, “Method for improving the environmental impact of formulated products” (Johnson & Johnson Consumer Inc., priority 2010, dated 2017).

Legend:
aquatic organisms = experiment: Overall toxicity scoring (minimum organism-specific toxicity score); settings: scale 0-100; minimum of the organism-specific scores
Method: Using the linear scoring scale in Table 5 (below), each of the three organism L(E)C50 values (i.e., LC50 or EC50 values) are transformed to an organism-specific toxicity score for the ingredient. If the organism-specific toxicity score is based on an estimated L(E)C50 value rather than an empirical L(E)C50 value, that score is reduced by an uncertainty penalty (e.g., 5 points).
The overall ingredient toxicity score is determined as the minimum organism-specific toxicity score. If no score could be determined for one class of aquatic indicator organism (i.e., primary producer, primary consumer, secondary consumer), the overall ingredient toxicity score is reduced by an uncertainty penalty (e.g., 5 points). If no score could be determined for two classes of aquatic indicator organisms, the overall ingredient score is reduced by a larger uncertainty penalty (e.g., 10 points).
The process used for ingredients that are organic compounds is also used for ingredients that are inorganic compounds with the following exceptions: (1) only empirical data are considered, as models for predicting the aquatic toxicity of metals are not widely available; (2) the toxicity of the ingredient and all plausible environmental degradants are calculated. The lowest Toxicity score among the ingredient and its plausible environmental degradants is assigned as the final Toxicity score for the ingredient.

fish [1] = settings: 50% lethality, empirical acute study; cited from earlier work
algae [2] = settings: 50% inhibition in growth rate, empirical acute study; cited from earlier work
water flea [3] = settings: 50% immobilization, empirical acute study; cited from earlier work
fish [4] = experiment: Acute aquatic toxicity, vertebrate/secondary consumer, 50% lethality; settings: scale 0-100, from LC50 by Table 5
water flea [5] = experiment: Acute aquatic toxicity, invertebrate/primary consumer, 50% immobilization; settings: scale 0-100, from EC50 by Table 5
algae [6] = experiment: Acute aquatic toxicity, aquatic plant/primary producer, 50% inhibition in growth rate; settings: scale 0-100, from EC50 by Table 5

| Compound | Toxicity score (aquatic organisms) | Fish LC50 (fish [1]) | Aquatic Plant EC50 (algae [2]) | Invertebrate EC50 (water flea [3]) | Fish toxicity score (fish [4]) | Invertebrate toxicity score (water flea [5]) | Aquatic Plant toxicity score (algae [6]) |
| --- | --- | --- | --- | --- | --- | --- | --- |
| [O]=[Zn] [zinc oxide] | zero | – | – | – | – | – | – |
| OCC(O)CO [Glycerin] | 100 | 5,000 mg/L | 46,000 mg/L | 10,000 mg/L | 100 | 100 | 100 |
| [Zn+2] [Zn^2+] | zero | – | – | – | – | – | – |
